Test results from paper PMC11623267, “Inhibitors of malaria parasite cyclic nucleotide phosphodiesterases block asexual blood-stage development and mosquito transmission” (Science Advances, 2024).
Read-outs that look alike come from different tables or passages of the source.

How the values were obtained:
[1] = system: P. falciparum clinical isolates from Tororo and Busia Districts of Uganda; test: Ex vivo 72-hour SYBR Green assay, Ugandan clinical isolates; format: cell-based, Plasmodium falciparum; settings: 47 Ugandan isolates
Text: Clinical isolates were from the Tororo District of Uganda, located in the central-eastern part of the county near the Kenya border. Tororo and surrounding areas have high-intensity, year-round malaria transmission. […] Patients reporting use of antimalarial treatment within the previous 30 days or with evidence of an infection with other Plasmodium species were excluded. Informed consent was obtained from patients and/or primary care givers (depending on age); children aged 8 to 17 years provided assent. Two to 5 ml of blood was collected by venipuncture in a heparin tube. Samples were delivered to the adjacent IDRC laboratory at Tororo District Hospital or transported by car from Masafu Hospital on the day of collections for storage of blood spots on filter paper (for isolation of nucleic acids) and initiation of ex vivo culture of malaria parasites. Treatment involved a standard therapeutic regimen for uncomplicated falciparum malaria, which was a 3-day course of the artemisinin-based combination therapy (ACT), artemether-lumefantrine. In Uganda, at the time of sampling, there was widespread resistance to the antifolate drugs due to mutant pfdhfr/pfdhps alleles. […] Chloroquine was prepared at 10 mM in water. Stock solutions were stored at −20°C. Working solutions were freshly prepared from a single aliquot within 4 hours of the susceptibility test and stored at 4°C.
Samples were delivered to the adjacent IDRC laboratory at Tororo District Hospital or transported by car from Masafu Hospital on the day of collection for storage of blood spots on filter paper (for isolation of nucleic acids) and initiation of ex vivo culture of malaria parasites. […] Before assay, 10 mM antimalarial stock compounds were diluted as necessary in DMSO and stored at −20°C. […] Compounds were serially diluted threefold in a 96-well assay plate in complete medium to a final volume of 50 μl, in columns 1 to 10, with concentrations optimized to capture full dose-response curves. Column 11 contained compound-free controls, while column 12 contained uninfected human RBC controls. Parasite culture (150 μl) was added to columns 1 to 11 of the assay plate with a final volume of 200 μl per well, 0.2% parasitemia, and 2% hematocrit. […] Thawed plates were incubated with SYBR Green lysis buffer for 1 hour in the dark as previously reported ([62]). Fluorescence was quantified using a BMG Fluostar Optima plate reader at an excitation of 485 nm and an emission of 530 nm, and data were plotted using GraphPad Prism 7. The data were curve fit with a variable slope function to estimate IC50 values. For each isolate, a Z′ factor to assess assay quality was calculated from positive controls (eight drug-free wells) and negative controls (eight parasite-free, red cell control wells). Z′ values over 0.5 were considered good assays, but each curve was also examined by eye for suitability. Some assays with Z′ below 0.5 may be considered valid depending on factors such as the SE of the curve-fit IC50.

[2] = system: HepG2 cells; test: HepG2 cytotoxicity; format: cell-based
Text: Table 1. Key activity data for the three main chemical subseries against ABS parasites, parasite fractions, and HepG2 cells. ND, not determined; ×/÷ is the geometric mean with geometric SD. | column: HepG2 EC50 (nM) (selectivity index)

[3] = system: P. falciparum Dd2-B2 lines selected under drug pressure; test: 72-hour flow cytometry EC50 assay, lines selected under drug pressure; format: cell-based, Plasmodium falciparum; settings: for EC50: Plasmodium falciparum

| Compound | EC50 ([1]; read-out: EC50 clinical isolates, Gmean (geometric mean)) [nM] | EC50 ([1]; read-out: EC50 clinical isolates, Median) [nM] | EC50 ([2]; Homo sapiens, HepG2) [µM] | HepG2 selectivity index ([2]; value in brackets after HepG2 EC50) | EC50 ([3]; DD2, read-out: EC50, line selected with SAL-0010003, Well A7) [nM] | EC50 ([3]; DD2, read-out: EC50, line selected with SAL-0010003, Well E2) [nM] | EC50 ([3]; DD2, read-out: EC50, line selected with SAL-0010003, Well F10) [nM] | Mean fold change in EC50 ([3]; selected lines vs Dd2-B2 parental line, ±SD) [fold] | EC50 shift, line selected with SAL-0010003, Well A7 ([3]; vs Dd2-B2) [fold] | EC50 shift, line selected with SAL-0010003, Well E2 ([3]; vs Dd2-B2) [fold] | EC50 shift, line selected with SAL-0010003, Well F10 ([3]; vs Dd2-B2) [fold] |
| --- | --- | --- | --- | --- | --- | --- | --- | --- | --- | --- | --- |
| CC(C)c1[nH]nc2c(=O)[nH]c(Cc3ccccc3F)nc12 [SAL-0010042] | 204 | 197 | – | – | – | – | – | – | – | – | – |
| CC(C)c1n[nH]c2c(=O)[nH]c(Cc3ccc(F)cc3F)nc12 [SAL-0010003] | – | – | > 25 | > 77 | 2800 | 2510 | 1620 | 7.6 ± 2.0 | 9.2 | 8.3 | 5.3 |
